Assay results: paper PMC11578313, “Miniaturized Modular Click Chemistry‐enabled Rapid Discovery of Unique SARS‐CoV‐2 M^pro Inhibitors With Robust Potency and Drug‐like Profile” (Advanced Science, 2024)
“And” between values parts separate entries of the source, which are not always exact repeats. Identical values can stand only once. Like-named read-outs stand apart in the source and are kept apart here.

Tests used:
SARS‐CoV‐2 M^pro = SARS‐CoV‐2 M^pro (Severe acute respiratory syndrome coronavirus 2, UniProt P0DTD1); experiment: SARS‐CoV‐2 main protease enzymatic assay (FRET inhibitor screening kit); assay type: biochemical; details: for inhibition at 5 µM: read-out: Inhibitionrate at @5μM
in vitro [1] = details: African green monkey
in vitro [2] = details: human
SARS‐CoV‐2 = experiment: microbe, parasite or virus in culture; assay type: cell-based; details: Severe acute respiratory syndrome coronavirus 2, Vero cells
[3] = system: SARS‐CoV‐2 (hCoV‐19/Korea/KCDC06/2020, wild type); experiment: microbe, parasite or virus in culture; assay type: cell-based
[4] = cytotoxicity; cited from earlier work
[5] = with CP‐100356, read-out: EC50 ± SD, Vero cells, with P‐gp inhibitor
[6] = without CP‐100356, read-out: EC50 ± SD, Vero cells, without P‐gp inhibitor
[7] = Severe acute respiratory syndrome coronavirus 2, Calu-3, Calu‐3 cells, with CP‐100356, read-out: EC50 ± SD, Calu‐3 cells, with P‐gp inhibitor
[8] = Severe acute respiratory syndrome coronavirus 2, Calu-3, Calu‐3 cells, without CP‐100356, read-out: EC50 ± SD, Calu‐3 cells, without P‐gp inhibitor
[9] = Calu‐3 cells, without CP‐100356, read-out: EC50 ± SD, Calu‐3 cells, without P‐gp inhibitor

O=C(c1cccnc1)N1C[C@H]2CC[C@@H](C1)N2C(c1cccc(F)c1)c1cn(CCN2C(=O)c3ccccc3C2=O)nn1 (some centres unmarked) [Compound C6N21]
IC50 (SARS‐CoV‐2 M^pro): 200 ± 16 nM
inhibition of M^pro enzymatic activity, first round of screening (SARS‐CoV‐2 M^pro): 89%
inhibition at 5 µM (SARS‐CoV‐2 M^pro): 95.1%

Cc1cncc(C(=O)N2C[C@H]3CC[C@@H](C2)N3C(c2cccc(F)c2)c2cn(CC(N)=O)nn2)c1 (some centres unmarked) [Compound C5N58]
CC50 at 2 day (in vitro [1]): > 100000 nM
CC50 at 2 day (in vitro [2]; CC50, Calu‐3 cells, MTT assay): > 100000 nM
EC50 (SARS‐CoV‐2; [5]): 1390 ± 171 nM
EC50 (SARS‐CoV‐2; [6]): > 100000 nM
IC50 (SARS‐CoV‐2 M^pro): 151 ± 6 nM
inhibition of M^pro enzymatic activity, first round of screening (SARS‐CoV‐2 M^pro): 99%
inhibition at 5 µM (SARS‐CoV‐2 M^pro): 100%
EC50 ([3]; Calu‐3 cells, with CP‐100356, read-out: EC50 ± SD, Calu‐3 cells, with P‐gp inhibitor): 338 ± 56 nM
EC50 [3, 7]: 337 nM
EC50 [3, 8]: 4940 ± 687 nM

O=C(c1cccnc1)N1C[C@H]2CC[C@@H](C1)N2C(c1cccc(F)c1)c1cn(CCc2ccsc2)nn1 (some centres unmarked) [Compound C6N17]
IC50 (SARS‐CoV‐2 M^pro): 300 ± 12 nM
inhibition of M^pro enzymatic activity, first round of screening (SARS‐CoV‐2 M^pro): 90%
inhibition at 5 µM (SARS‐CoV‐2 M^pro): 91.7%

COC(=O)CCCn1cc(C(c2cccc(F)c2)N2[C@@H]3CC[C@H]2CN(C(=O)c2cncc(C)c2)C3)nn1 (some centres unmarked) [Compound C5N39]
CC50 at 2 day (in vitro [1]): > 100000 nM
CC50 at 2 day (in vitro [2]; CC50, Calu‐3 cells, MTT assay): > 100000 nM
EC50 (SARS‐CoV‐2; [5]): 1600 ± 249 nM
EC50 (SARS‐CoV‐2; [6]): 1870 ± 270 nM
IC50 (SARS‐CoV‐2 M^pro): 253 ± 10 nM
inhibition of M^pro enzymatic activity, first round of screening (SARS‐CoV‐2 M^pro): 96%
inhibition at 5 µM (SARS‐CoV‐2 M^pro): 87.6%
EC50 [3, 9]: 899 ± 312 nM
EC50 [3, 7]: 253 ± 26 nM
EC50 [3, 8]: < 1000 nM

O=C(c1cccnc1)N1CCN(C(c2cccc(F)c2)c2cn(CCc3ccsc3)nn2)CC1 (centres unmarked) [Compound C4N17]
CC50 at 2 day (in vitro [1]): > 100000 nM
CC50 at 2 day (in vitro [2]): > 100000 nM
EC50 (SARS‐CoV‐2; [5]): 2460 ± 314 nM
EC50 (SARS‐CoV‐2; [6]): 2740 ± 110 nM
inhibition of M^pro enzymatic activity, first round of screening (SARS‐CoV‐2 M^pro): 86%
inhibition at 5 µM (SARS‐CoV‐2 M^pro): 72.3%
IC50 (SARS‐CoV‐2 M^pro; purified compounds, FRET assay): 1870 ± 13 nM
EC50 [3, 7]: 880 ± 109 nM
EC50 [3, 8]: 1850 ± 139 nM

O=C(c1cccnc1)N1CCN(C(c2cccc(F)c2)c2cn(CCN3C(=O)c4ccccc4C3=O)nn2)CC1 (centres unmarked) [Compound C4N21]
CC50 at 2 day (in vitro [1]): 69800 ± 1050 nM
CC50 at 2 day (in vitro [2]): > 100000 nM
EC50 (SARS‐CoV‐2; [5]): > 10000 nM
EC50 (SARS‐CoV‐2; [6]): > 69800 nM
inhibition of M^pro enzymatic activity, first round of screening (SARS‐CoV‐2 M^pro): 82%
inhibition at 5 µM (SARS‐CoV‐2 M^pro): 80.2%
IC50 (SARS‐CoV‐2 M^pro; purified compounds, FRET assay): 1300 ± 17 nM
EC50 [3, 7]: 4020 ± 566 nM
EC50 [3, 8]: 74400 ± 36300 nM

Cc1cncc(C(=O)N2C[C@H]3CC[C@@H](C2)N3C(c2cccc(F)c2)c2cn(CCc3ccccc3)nn2)c1 (some centres unmarked) [Compound C5N16]
CC50 at 2 day (in vitro [1]): > 100000 nM
CC50 at 2 day (in vitro [2]; CC50, Calu‐3 cells, MTT assay): > 100000 nM
EC50 (SARS‐CoV‐2; [5]): 1890 ± 524 nM
EC50 (SARS‐CoV‐2; [6]): 2000 ± 21 nM
IC50 (SARS‐CoV‐2 M^pro): 283 ± 18 nM
inhibition of M^pro enzymatic activity, first round of screening (SARS‐CoV‐2 M^pro): 99%
inhibition at 5 µM (SARS‐CoV‐2 M^pro): 93%
EC50 [3, 7]: 80 ± 2 nM

Cc1cncc(C(=O)N2C[C@H]3CC[C@@H](C2)N3C(c2cccc(F)c2)c2cccc(F)c2)c1 [AA‐625, reference compound]
CC50 at 2 day (in vitro [1]): 43900 ± 2940 nM
CC50 at 2 day (in vitro [2]; CC50 (Table 3), Calu‐3 cells): 42900 ± 414 nM
CC50 at 2 day (in vitro [2]; CC50, Calu‐3 cells, MTT assay): > 100000 nM
EC50 (SARS‐CoV‐2; [5]): 2020 ± 76 nM
EC50 (SARS‐CoV‐2; [6]): 2050 ± 56 nM
IC50 (SARS‐CoV‐2 M^pro): 900 nM and 904 nM
inhibition of M^pro enzymatic activity, first round of screening (SARS‐CoV‐2 M^pro): 57%
inhibition at 5 µM (SARS‐CoV‐2 M^pro): 87.9%
EC50 [3, 9]: 148 ± 7 nM
EC50 [3, 7]: < 10 nM
EC50 [3, 8]: 150 nM
CC50 [4]: 22500 nM

Cc1cncc(C(=O)N2C[C@H]3CC[C@@H](C2)N3C(c2cccc(F)c2)c2cn(Cc3cccc(F)c3)nn2)c1 (some centres unmarked) [Compound C5N64]
CC50 at 2 day (in vitro [1]): > 100000 nM
CC50 at 2 day (in vitro [2]; CC50, Calu‐3 cells, MTT assay): > 100000 nM
EC50 (SARS‐CoV‐2; [5]): 2860 ± 131 nM
EC50 (SARS‐CoV‐2; [6]): 4200 ± 738 nM
IC50 (SARS‐CoV‐2 M^pro): 1230 ± 100 nM
inhibition of M^pro enzymatic activity, first round of screening (SARS‐CoV‐2 M^pro): 93%
inhibition at 5 µM (SARS‐CoV‐2 M^pro): 79.9%
EC50 [3, 7]: 479 ± 26 nM
EC50 [3, 8]: 2940 ± 124 nM

Cc1cncc(C(=O)N2C[C@H]3CC[C@@H](C2)N3C(c2cccc(F)c2)c2cn(Cc3ccc([N+](=O)[O-])cc3)nn2)c1 (some centres unmarked) [Compound C5N6]
CC50 at 2 day (in vitro [1]): > 100000 nM
CC50 at 2 day (in vitro [2]; CC50, Calu‐3 cells, MTT assay): > 100000 nM
EC50 (SARS‐CoV‐2; [5]): 1740 ± 238 nM
EC50 (SARS‐CoV‐2; [6]): 1830 ± 30 nM
IC50 (SARS‐CoV‐2 M^pro): 2500 ± 13 nM
inhibition of M^pro enzymatic activity, first round of screening (SARS‐CoV‐2 M^pro): 88%
inhibition at 5 µM (SARS‐CoV‐2 M^pro): 68.8%
EC50 [3, 9]: 767 ± 156 nM
EC50 [3, 7]: 1050 ± 14 nM
EC50 [3, 8]: < 1000 nM
